This data set can be described thus: Solubility of redox-active electrolyte species in aqueous electrolyte.

The solubility is how much of the substance goes into solution per volume. Read a high solubility as much dissolved substance.

`CCCCCCC[n+]1ccc(-c2cc[n+](CCCCCCC)cc2)cc1.[Br-].[Br-]` [HV] returned a solubility (aqueous electrolyte) below 200 mM.

For the molecule `CCCCCC[n+]1ccc(-c2cc[n+](CCCCCC)cc2)cc1` [Hexyl viologen], the “solubility in the presence of NaBr” value (aqueous, in the presence of NaBr) is below 500 mM.

Source of the values: patent US10770699B2, “Stable bromine charge storage in porous carbon electrodes using tetraalkylammonium bromides for reversible solid complexation” (The Regents of the University of California, priority 2014, dated 2020).
